Measurements reported in BindingDB's records for PubMed 32698113 (Sichuan University, 2020).

Assay: Inhibition of human neutrophil elastase activity assessed as reduction in […]

IC50: > 10 µM
SMILES: COc1cc2c(c3c1CCC(c1ccccc1)O3)C1C3C(c4ccc(O)c(C)c4OC)C(C(O)(OC)c4ccccc4)C14C(C=CC(=O)C4OC)OC3(c1ccccc1)O2 (stereo unspecified)
